Source: ChEMBL document CHEMBL1133206, “Antifungal rapamycin analogues with reduced immunosuppressive activity” (Bioorg Med Chem Lett, 2000)
pIC50: −log10 of the molar value. Values after ≈ are worked out from the molar mass of the structure shown.

How the values were obtained:
Candida albicans [1] = experiment: Compound was screened in vitro for antifungal activity against Candida albicans (CA 38247); format: functional
Candida tropicalis = experiment: In vitro antifungal activity against Candida tropicalis (CT 750); format: functional
Candida albicans [2] = experiment: In vitro for antifungal activity against Candida albicans (CA 579a); format: functional
Candida albicans [3] = experiment: In vitro antifungal activity against Candida albicans (CA 10231); format: functional
Pichia kudriavzevii = experiment: In vitro antifungal activity against Candida krusei (CK 28838); format: functional
Candida albicans [4] = experiment: Compound was screened in vitro for antifungal activity against Candida albicans (CA 442); format: functional
Candida albicans [5] = experiment: Compound was screened in vitro for antifungal activity against Candida albicans (CA 62376); format: functional
Homo sapiens = organism: Homo sapiens; experiment: Inhibitory activity against human concanavalin-A proliferation assay; format: functional
Aspergillus niger = experiment: In vitro antifungal activity at a minimum inhibitory concentration (~100 ug/mL) against Aspergillus niger; Not affected; format: functional
Candida albicans [6] = experiment: In vitro antifungal activity against Candida albicans (CA 38247); Weak; format: functional, organism-based
Candida albicans [7] = experiment: In vitro antifungal activity against Candida albicans (CA 442); Weak; format: functional, organism-based
Nakaseomyces glabratus = experiment: In vitro antifungal activity against Torulopsis glabrata (TG 15545); format: functional
Candida albicans [8] = experiment: In vitro antifungal activity against Candida albicans (CA 62376); Weak; format: functional, organism-based
Candida albicans [9] = experiment: In vitro antifungal activity against […] (CA 34140); Not affected.; format: functional
[10] = Aspergillus niger, read-out: MIC

SMILES	MIC (Candida albicans [1]) [mg/L]	MIC (Candida tropicalis) [mg/L]	MIC (Candida albicans [2]) [mg/L]	MIC (Candida albicans [3]) [mg/L]	MIC (Pichia kudriavzevii) [mg/L]	MIC (Candida albicans [4]) [mg/L]	MIC (Candida albicans [5]) [mg/L]	MIC (Aspergillus niger; [10]) [mg/L]	MIC (Candida albicans [6])	MIC (Candida albicans [7])	MIC (Nakaseomyces glabratus) [mg/L]	MIC (Candida albicans [8])	MIC (Candida albicans [9]) [mg/L]	MIC (Aspergillus niger) [mg/L]	pIC50 (Homo sapiens)
CO[C@H]1C[C@@H]2CC[C@@H](C)[C@@](O)(O2)C(=O)C(=O)N2CCCC[C@H]2C(=O)O[C@H]([C@H](C)C[C@@H]2CC[C@@H](OC(=O)N3CCCCC3)[C@H](OC)C2)CC(=O)[C@H](C)/C=C(\C)[C@@H](O)[C@@H](OC)C(=O)[C@H](C)C[C@H](C)CCCC/C=C/1C	> 100	> 100	> 100	> 100	> 100	> 100									
CO[C@@H]1C[C@H](C[C@@H](C)[C@@H]2CC(=O)[C@H](C)/C=C(\C)[C@@H](O)[C@@H](OC)C(=O)[C@H](C)C[C@H](C)/C=C/C=C/C=C(\C)[C@H](N(OC)C(=O)N(C)C)C[C@@H]3CC[C@@H](C)[C@@](O)(O3)C(=O)C(=O)N3CCCC[C@H]3C(=O)O2)CC[C@H]1O		50 (≈ 50 µM)	50 (≈ 50 µM)	50 (≈ 50 µM)	1.56 (≈ 1.56 µM)			~100 (≈ 100 µM)	Weak	Weak	1.56 (≈ 1.56 µM)	Weak	~100 (≈ 100 µM)		8.19
CO[C@H]1C[C@@H]2CC[C@@H](C)[C@@](O)(O2)C(=O)C(=O)N2CCCC[C@H]2C(=O)O[C@H]([C@H](C)C[C@@H]2CC[C@@H](OC(=O)N3CCNCC3)[C@H](OC)C2)CC(=O)[C@H](C)/C=C(\C)[C@@H](O)[C@@H](OC)C(=O)[C@H](C)C[C@H](C)CCCC/C=C/1C	> 100	> 100	> 100	> 100	> 100	> 100									

Stronger by MIC (Candida tropicalis), values ahead:

MIC (Candida albicans [1]) [mg/L]	MIC (Candida tropicalis) [mg/L]	MIC (Candida albicans [2]) [mg/L]	MIC (Candida albicans [3]) [mg/L]	MIC (Pichia kudriavzevii) [mg/L]	MIC (Candida albicans [4]) [mg/L]	MIC (Candida albicans [5]) [mg/L]	MIC (Aspergillus niger; [10]) [mg/L]	MIC (Candida albicans [6])	MIC (Candida albicans [7])	MIC (Nakaseomyces glabratus) [mg/L]	MIC (Candida albicans [8])	MIC (Candida albicans [9]) [mg/L]	MIC (Aspergillus niger) [mg/L]	SMILES	pIC50 (Homo sapiens)
	25 (≈ 25.7 µM)	50 (≈ 51.4 µM)	25 (≈ 25.7 µM)	1.56 (≈ 1.6 µM)			~100 (≈ 103 µM)	Weak	Weak	1.56 (≈ 1.6 µM)	Weak	~100 (≈ 103 µM)		COC(=O)N(O)[C@H]1C[C@@H]2CC[C@@H](C)[C@@](O)(O2)C(=O)C(=O)N2CCCC[C@H]2C(=O)O[C@H]([C@H](C)C[C@@H]2CC[C@@H](O)[C@H](OC)C2)CC(=O)[C@H](C)/C=C(\C)[C@@H](O)[C@@H](OC)C(=O)[C@H](C)C[C@H](C)/C=C/C=C/C=C/1C	8.83
	6.25 (≈ 6.24 µM)	12.5 (≈ 12.5 µM)	12.5 (≈ 12.5 µM)	0.78 (≈ 0.779 µM)			~100 (≈ 99.9 µM)	Weak	Weak	1.56 (≈ 1.56 µM)	Weak	~100 (≈ 99.9 µM)		CCCOC(=O)N(O)[C@H]1C[C@@H]2CC[C@@H](C)[C@@](O)(O2)C(=O)C(=O)N2CCCC[C@H]2C(=O)O[C@H]([C@H](C)C[C@@H]2CC[C@@H](O)[C@H](OC)C2)CC(=O)[C@H](C)/C=C(\C)[C@@H](O)[C@@H](OC)C(=O)[C@H](C)C[C@H](C)/C=C/C=C/C=C/1C	6.05
	3.12 (≈ 3.26 µM)	25 (≈ 26.1 µM)	12.5 (≈ 13 µM)	3.12 (≈ 3.26 µM)			~100 (≈ 104 µM)	Weak	Weak	1.56 (≈ 1.63 µM)	Weak	~100 (≈ 104 µM)	~100 (≈ 104 µM)	CO[C@@H]1C[C@H](C[C@@H](C)[C@@H]2CC(=O)[C@H](C)/C=C(\C)[C@@H](O)[C@@H](OC)C(=O)[C@H](C)C[C@H](C)/C=C/C=C/C=C(\C)[C@H](N(O)C(N)=O)C[C@@H]3CC[C@@H](C)[C@@](O)(O3)C(=O)C(=O)N3CCCC[C@H]3C(=O)O2)CC[C@H]1O	6.42
1.56 (≈ 1.7 µM)	1.56 (≈ 1.7 µM)	1.56 (≈ 1.7 µM)	1.56 (≈ 1.7 µM)	1.56 (≈ 1.7 µM)	1.56 (≈ 1.7 µM)	1.56 (≈ 1.7 µM)								CO[C@H]1C[C@@H]2CC[C@@H](C)[C@@](O)(O2)C(=O)C(=O)N2CCCC[C@H]2C(=O)O[C@H]([C@H](C)C[C@@H]2CCC(O)[C@H](OC)C2)CC(=O)[C@H](C)/C=C(\C)[C@@H](O)[C@@H](OC)C(=O)[C@H](C)C[C@H](C)CCCC/C=C/1C (single isomer, unassigned; 2)	5.80
	0.78 (≈ 0.753 µM)	3.12 (≈ 3.01 µM)	1.56 (≈ 1.51 µM)	0.78 (≈ 0.753 µM)			~100 (≈ 96.6 µM)	Weak	Weak	0.78 (≈ 0.753 µM)	Weak	~100 (≈ 96.6 µM)		CO[C@@H]1C[C@H](C[C@@H](C)[C@@H]2CC(=O)[C@H](C)/C=C(\C)[C@@H](O)[C@@H](OC)C(=O)[C@H](C)C[C@H](C)/C=C/C=C/C=C(\C)[C@H](N(O)C(=O)Oc3ccccc3)C[C@@H]3CC[C@@H](C)[C@@](O)(O3)C(=O)C(=O)N3CCCC[C@H]3C(=O)O2)CC[C@H]1O	6.77
